Structures are written as SMILES. Where “and” joins values, the source holds several entries; their conditions need not be identical. Equal values may be shown once. Inconclusive results and toxic doses are left out.

This experiment concerns BDF1 mice, L1210 6-MP/6-TG resistant leukemia ip, survival T/C. The experiment can be described thus: NCI In Vivo Anticancer Drug Screen. Data for tumor model L1210 Leukemia resistant to 6-MP and 6-Thioguanine; NSC 755, NSC 752 (intraperitoneal) in B6D2F1 (BDF1) mice. As to conditions: endpoint: mean survival time, higher = longer survival. The procedure:
The antitumor activity of compounds was measured in mice bearing transplantable tumors. Survival or tumor size were measured and the results are expressed as the measurement made in the treated group (T) divided by the measurement made in the vehicle treated control group (C). The tumor model used in this assay is L1210 Leukemia resistant to 6-MP and 6-Thioguanine; NSC 755, NSC 752 (intraperitoneal) in B6D2F1 (BDF1) mice

The mark [1] stands for this setting: dose: 25.0 mg/kg/injection, schedule: Q01DX Z (ip), vehicle: carboxymethylcellulose (CMC).
The mark [2] stands for this setting: dose: 50.0 mg/kg/injection, schedule: Q01DX Z (ip), vehicle: carboxymethylcellulose (CMC).
[3] abbreviates: dose: 75.0 mg/kg/injection, schedule: Q01DX Z (ip), vehicle: carboxymethylcellulose (CMC).
Where [4] appears, read: dose: 100.0 mg/kg/injection, schedule: Q01DX Z (ip), vehicle: carboxymethylcellulose (CMC).
[5] abbreviates: dose: 150.0 mg/kg/injection, schedule: Q01DX Z (ip), vehicle: carboxymethylcellulose (CMC).
Setting [6] is: dose: 12.5 mg/kg/injection, schedule: Q01DX015 (ip), vehicle: carboxymethylcellulose (CMC).

For `O=C(Nc1ccc(C2=NCCN2)cc1)c1ccc(C(=O)Nc2ccc(C3=NCCN3)cc2)cc1`, the T/C reads like this: (dose: 18.75 mg/kg/injection, schedule: Q01DX Z (ip), vehicle: carboxymethylcellulose (CMC)) 154 % of control; under setting [1], 151 % of control; (dose: 27.0 mg/kg/injection, schedule: Q02DX010 (ip), vehicle: carboxymethylcellulose (CMC)) 312 % of control; (dose: 40.0 mg/kg/injection, schedule: Q02DX010 (ip), vehicle: carboxymethylcellulose (CMC)) 317 % of control; under setting [2], 219 % of control; (dose: 60.0 mg/kg/injection, schedule: Q02DX010 (ip), vehicle: carboxymethylcellulose (CMC)) 296 % of control. For the same compound, the T/C was 188 % of control and 232 % of control under setting [3]; 280 % of control (dose: 90.0 mg/kg/injection, schedule: Q02DX010 (ip), vehicle: carboxymethylcellulose (CMC)); 288 % of control and 295 % of control under setting [4]; 312 % of control (dose: 135.0 mg/kg/injection, schedule: Q02DX010 (ip), vehicle: carboxymethylcellulose (CMC)); 300 % of control under setting [5]; 186 % of control (dose: 200.0 mg/kg/injection, schedule: Q01DX Z (ip), vehicle: carboxymethylcellulose (CMC)).
Take `N#[N+]c1cnc([O-])[nH]c1=O`: the T/C (dose: 5.0 mg/kg/injection, schedule: Q01DX Z (ip), vehicle: alkali diluted with saline) is 166 % of control; the T/C (dose: 7.5 mg/kg/injection, schedule: Q01DX Z (ip), vehicle: alkali diluted with saline) is 177 % of control; the T/C (dose: 10.0 mg/kg/injection, schedule: Q01DX Z (ip), vehicle: alkali diluted with saline) is 150 % of control; the T/C (dose: 15.0 mg/kg/injection, schedule: Q01DX Z (ip), vehicle: alkali diluted with saline) is 95 % of control.
As for `S=c1nc[nH]c2c1ncn2C1CCCC1`, the T/C runs as follows: (dose: 10.0 mg/kg/injection, schedule: Q01DX015 (ip), vehicle: carboxymethylcellulose (CMC)) 95 % of control; (dose: 10.0 mg/kg/injection, schedule: Q01DX015 (ip), vehicle: saline) 100 % of control; (dose: 30.0 mg/kg/injection, schedule: Q01DX015 (ip), vehicle: carboxymethylcellulose (CMC)) 98 % of control; (dose: 50.0 mg/kg/injection, schedule: Q01DX015 (ip), vehicle: carboxymethylcellulose (CMC)) 97 % of control; (dose: 50.0 mg/kg/injection, schedule: Q01DX015 (ip), vehicle: saline) 93 % of control.
In the case of `O=C(Nc1ccc(C2=NCCN2)cc1)c1cccc(C(=O)Nc2ccc(C3=NCCN3)cc2)c1`, the T/C runs as follows: (dose: 2.5 mg/kg/injection, schedule: Q01DX Z (ip), vehicle: water) 110 % of control; (dose: 10.0 mg/kg/injection, schedule: Q01DX Z (ip), vehicle: water) 300 % of control; (dose: 20.0 mg/kg/injection, schedule: Q01DX Z (ip), vehicle: water) 187 % of control.
Take `O=NN(CCCl)C(=O)NCCCl`: the T/C by setting is: (dose: 2.0 mg/kg/injection, schedule: Q01DX015 (ip), vehicle: saline) 166 % of control and 181 % of control and 196 % of control; (dose: 2.6 mg/kg/injection, schedule: Q01DX015 (ip), vehicle: saline) 168 % of control; (dose: 6.0 mg/kg/injection, schedule: Q01DX015 (ip), vehicle: saline) 156 % of control; (dose: 8.0 mg/kg/injection, schedule: Q01DX015 (ip), vehicle: saline) 151 % of control and 157 % of control and 185 % of control; (dose: 9.0 mg/kg/injection, schedule: Q01DX015 (ip), vehicle: saline) 164 % of control; (dose: 13.5 mg/kg/injection, schedule: Q01DX015 (ip), vehicle: saline) 123 % of control.
For the compound `CN(C)C(=S)N=Nc1c(O)[nH]c2ccccc12`, the T/C under setting [1] is 107 % of control, the T/C under setting [2] is 105 % of control and the T/C under setting [4] is 91 % of control.
For the compound `c1nc(SC2CCCC2)c2[nH]cnc2n1`, the T/C was 96 % of control (dose: 80.0 mg/kg/injection, schedule: Q01DX Z (ip), vehicle: carboxymethylcellulose (CMC)); 110 % of control (dose: 160.0 mg/kg/injection, schedule: Q01DX Z (ip), vehicle: carboxymethylcellulose (CMC)); 89 % of control (dose: 320.0 mg/kg/injection, schedule: Q01DX Z (ip), vehicle: carboxymethylcellulose (CMC)).
Take `O=c1cnn(C2OC(CO)C(O)C2O)c(=O)[nH]1` (stereo not given): the T/C by setting is: (dose: 62.5 mg/kg/injection, schedule: Q01DX Z (ip), vehicle: saline) 115 % of control; (dose: 500.0 mg/kg/injection, schedule: Q01DX Z (ip), vehicle: saline) 120 % of control; (dose: 750.0 mg/kg/injection, schedule: Q01DX Z (ip), vehicle: saline) 110 % of control; (dose: 1000.0 mg/kg/injection, schedule: Q01DX Z (ip), vehicle: saline) 109 % of control.
With `CCSc1ncc(Br)c(Sc2nc(N)nc3nc[nH]c23)n1`, the T/C was 112 % of control (dose: 1.5 mg/kg/injection, schedule: Q01DX015 (ip), vehicle: carboxymethylcellulose (CMC)); 115 % of control (dose: 3.0 mg/kg/injection, schedule: Q01DX015 (ip), vehicle: carboxymethylcellulose (CMC)); 100 % of control (dose: 6.0 mg/kg/injection, schedule: Q01DX015 (ip), vehicle: carboxymethylcellulose (CMC)); 100 % of control under setting [6].
With `CN(C)c1ccc(/C=C\c2ccnc3ccccc23)cc1`, the T/C was 106 % of control (dose: 1.87 mg/kg/injection, schedule: Q01DX Z (ip), vehicle: carboxymethylcellulose (CMC)); 97 % of control (dose: 3.75 mg/kg/injection, schedule: Q01DX Z (ip), vehicle: carboxymethylcellulose (CMC)); 100 % of control (dose: 7.5 mg/kg/injection, schedule: Q01DX Z (ip), vehicle: carboxymethylcellulose (CMC)); 91 % of control (dose: 15.0 mg/kg/injection, schedule: Q01DX Z (ip), vehicle: carboxymethylcellulose (CMC)).
Regarding `C[C@]12C=CC(=O)C=C1CC[C@@H]1[C@@H]2C(=O)C[C@@]2(C)[C@H]1CC[C@]2(O)C(=O)CO`, the T/C is 105 % of control (dose: 50.0 mg/kg/injection, schedule: Q01DX Z (sc), vehicle: steriod suspending solution); 100 % of control (dose: 100.0 mg/kg/injection, schedule: Q01DX Z (sc), vehicle: steriod suspending solution); 93 % of control (dose: 150.0 mg/kg/injection, schedule: Q01DX Z (sc), vehicle: steriod suspending solution); 96 % of control (dose: 200.0 mg/kg/injection, schedule: Q01DX Z (sc), vehicle: steriod suspending solution).
Take `O=c1cn[nH]c(=O)[nH]1`: the T/C runs as follows: (dose: 125.0 mg/kg/injection, schedule: Q01DX Z (ip), vehicle: carboxymethylcellulose (CMC)) 109 % of control; (dose: 250.0 mg/kg/injection, schedule: Q01DX Z (ip), vehicle: carboxymethylcellulose (CMC)) 115 % of control; (dose: 375.0 mg/kg/injection, schedule: Q01DX Z (ip), vehicle: carboxymethylcellulose (CMC)) 121 % of control; (dose: 500.0 mg/kg/injection, schedule: Q01DX Z (ip), vehicle: carboxymethylcellulose (CMC)) 121 % of control.
As for `CCn1cnc2c(=S)nc[nH]c21`, the T/C was 91 % of control under setting [2], 94 % of control under setting [3], 92 % of control under setting [4] and 87 % of control under setting [5].
Turning to `O=C(O)c1cc[c]([Hg][S]c2ncnc3nc[nH]c23)cc1`, the T/C by setting is: under setting [6], 95 % of control; (dose: 25.0 mg/kg/injection, schedule: Q01DX015 (ip), vehicle: carboxymethylcellulose (CMC)) 87 % of control.
As to `CS(=O)(=O)OCCCl`, the T/C reads like this: (dose: 75.0 mg/kg/injection, schedule: Q01DX Z (ip), vehicle: saline) 115 % of control; (dose: 100.0 mg/kg/injection, schedule: Q01DX Z (ip), vehicle: saline) 108 % of control; (dose: 150.0 mg/kg/injection, schedule: Q01DX Z (ip), vehicle: saline) 116 % of control.

These data come from PubChem BioAssay AID308 (DTP/NCI, 2004).
